Assay results reported in patent EP0895988B1, “Arylsulfonylamino hydroxamic acid derivatives” (Pfizer Products Inc., priority 1997, dated 1999).
pIC50: −log10 of the molar value. Values joined by “and” are separate entries in the source; they are usually repeats but may differ in a detail not shown here. Equal entries are not always repeated.

Assays:
[1] = target: T1, Human recombinant collagenase (MMP-1) (Homo sapiens, UniProt P03956); assay: Inhibition of Human Collagenase (MMP-1); assay type: biochemical; conditions: fluorogenic substrate DNP-Pro-Cha-Gly-Cys(Me)-His-Ala-Lys(NMA)-NH2; room temperature; repeated determinations
T1 sequence (P03956 100-469): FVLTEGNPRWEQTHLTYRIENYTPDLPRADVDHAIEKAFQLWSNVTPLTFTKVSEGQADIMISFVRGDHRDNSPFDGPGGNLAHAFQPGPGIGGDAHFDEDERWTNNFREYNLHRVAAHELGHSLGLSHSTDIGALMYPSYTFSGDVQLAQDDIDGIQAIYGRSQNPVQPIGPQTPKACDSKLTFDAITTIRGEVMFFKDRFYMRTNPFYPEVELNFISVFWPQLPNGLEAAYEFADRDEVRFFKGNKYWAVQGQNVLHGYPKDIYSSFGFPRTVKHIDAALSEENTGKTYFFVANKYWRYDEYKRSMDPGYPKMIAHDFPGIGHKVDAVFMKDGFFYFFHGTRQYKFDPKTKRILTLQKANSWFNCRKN
Protocol: Human recombinant collagenase is activated with trypsin using the following ratio: […] of collagenase. The trypsin and collagenase are incubated at room temperature for 10 minutes then a five fold excess (50 mg/10 mg trypsin) of soybean trypsin inhibitor is added.
10 mM stock solutions of inhibitors are made up in dimethyl sulfoxide and then diluted using the following Scheme: 10 mM → 120 µm → 12 µM → 1.2 µM → 0.12 µM [formula]
Twenty-five microliters of each concentration is then added in triplicate to appropriate wells of a 96 well microfluor plate. The final concentration of inhibitor will be a 1:4 dilution after addition of enzyme and substrate. Positive controls (enzyme, no inhibitor) are set up in wells D1-D6 and blanks (no enzyme, no inhibitors) are set in wells D7-D12.
Collagenase is diluted to 400 ng/ml and […] is then added to appropriate wells of the microfluor plate. Final concentration of collagenase in the assay is 100 ng/ml.
Substrate (DNP-Pro-Cha-Gly-Cys(Me)-His-Ala-Lys(NMA)-NH2) is made as a 5 mM stock in dimethyl sulfoxide and then diluted to […] in assay buffer. The assay is initiated by the addition of […] substrate per well of the microfluor plate to give a final concentration of […].
Fluorescence readings (360 nm excitation, 460 nm emission) were taken at time 0 and then at 20 minute intervals. The assay is conducted at room temperature with a typical assay time of 3 hours.
Fluorescence vs time is then plotted for both the blank and collagenase containing samples (data from triplicate determinations is averaged). […] The zero time is used as a blank for each compound at each concentration and these values are subtracted from the 120 minute data. Data is plotted as inhibitor concentration vs % control (inhibitor fluorescence divided by fluorescence of collagenase alone x 100). IC50's are determined from the concentration of inhibitor that gives a signal that is 50% of the control.
If IC50's are reported to be <0.03 mM then the inhibitors are assayed at concentrations of 0.3 mM, 0.03 mM, […].

Human recombinant MMP-13 = Human recombinant MMP-13 (Homo sapiens, UniProt P45452); assay: Inhibition of MMP-13; assay type: biochemical; conditions: fluorogenic substrate Dnp-Pro-Cha-Gly-Cys(Me)-His-Ala-Lys(NMA)-NH2; repeated determinations
Protocol: Human recombinant MMP-13 is activated with 2mM APMA (p-aminophenyl mercuric acetate) for 1.5 hours, at 37°C and is diluted to […] in assay buffer (50 mM Tris, pH 7.5, 200 mM sodium chloride, 5mM calcium chloride, […], 0.02% brij). Twenty-five microliters of diluted enzyme is added per well of a 96 well microfluor plate. The enzyme is then diluted in a 1:4 ratio in the assay by the addition of inhibitor and substrate to give a final concentration in the assay of […].
10 mM stock solutions of inhibitors are made up in dimethyl sulfoxide and then diluted in assay buffer as per the inhibitor dilution scheme for inhibition of human collagenase (MMP-1): Twenty-five microliters of each concentration is added in triplicate to the microfluor plate. The final concentrations in the assay are 30 mM, 3mM, 0.3 mM, and 0.03 mM.
Substrate (Dnp-Pro-Cha-Gly-Cys(Me)-His-Ala-Lys(NMA)-NH2) is prepared as for inhibition of human collagenase (MMP-1) and […] is added to each well to give a final assay concentration of […]. Fluorescence readings (360 nm excitation; 450 emission) are taken at time 0 and every 5 minutes for 1 hour.
Positive controls consist of enzyme and substrate with no inhibitor and blanks consist of substrate only.
IC50's are determined as per inhibition of human collagenase (MMP-1). If IC50's are reported to be less than […], inhibitors are then assayed at final concentrations of 0.3 mM, 0.03 mM, 0.003 mM and 0.0003 mM.

pIC50 [1]	pIC50 (Human recombinant MMP-13)	SMILES
6.10	7.28	CC(C)(C(=O)NO)N(CCC(=O)O)S(=O)(=O)c1ccc(-c2ccc(F)cc2)cc1 [Example 4, 3-[(4'-FLUOROBIPHENYL-4-SULFONYL)-(1-HYDROXYCARBAMOYL-1-METHYL-ETHYL)AMINO]PROPIONIC ACID]
7.10 and 6.84	8.00 and 7.92	COC(=O)CCN(C1(C(=O)NO)CCCC1)S(=O)(=O)c1ccc(-c2ccc(F)cc2)cc1 [Example 1, 3-[(4'-FLUOROBIPHENYL-4-SULFONYL)-(1-HYDROXYCARBAMOYLCYCLO-PENTYL)AMINO]PROPIONIC ACID METHYL ESTER]
6.71 and 6.52 and 6.70	8.77 and 8.46 and 8.70	O=C(O)CCN(C1(C(=O)NO)CCCC1)S(=O)(=O)c1ccc(-c2ccc(F)cc2)cc1 [Example 2, 3-[(4'-FLUOROBIPHENYL-4-SULFONYL)-(1-HYDROXYCARBAMOYLCYCLO-PENTYL)AMINO]PROPIONIC ACID]
5.40 and 5.89	7.70 and 7.77	CCOC(=O)CCN(C(C)(C)C(=O)NO)S(=O)(=O)c1ccc(-c2ccc(F)cc2)cc1 [Example 3, 3-{(4'-FLUOROBIPHENYL-4-SULFONYL)-(1-HYDROXYCARBAMOYL-1-METHYL-ETHYL)AMINO]-PROPIONIC ACID ETHYL ESTER]
